Here are results for 25 molecules from ChEMBL document CHEMBL4177685, “Ionic liquid mediated stereoselective synthesis of alanine linked hybrid quinazoline-4(3H)-one derivatives perturbing the malarial reductase activity in folate pathway” (Bioorg Med Chem, 2017).

For one data set, the system named is Plasmodium falciparum. Description: Antimalarial activity against Plasmodium falciparum in infected in human RBC. To be noted: Erythrocyte. The format is functional, organism-based.
The target in the next data set is T1, Dihydrofolate reductase (Bos taurus, UniProt P00376).
T1 sequence (P00376 whole entry): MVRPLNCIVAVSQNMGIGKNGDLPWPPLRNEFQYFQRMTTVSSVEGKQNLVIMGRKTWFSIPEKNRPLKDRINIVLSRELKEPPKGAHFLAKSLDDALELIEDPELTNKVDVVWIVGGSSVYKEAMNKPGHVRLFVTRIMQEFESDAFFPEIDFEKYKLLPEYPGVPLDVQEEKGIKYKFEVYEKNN
Description: Inhibition of bovine liver DHFR using FH2 as substrate preincubated for 2 mins followed by substrate addition.

In a further data set the test system is Vero. Description: Cytotoxicity against African green monkey Vero cells up to 15 ug/ml after 72 hrs by MTT assay. The format is cell-based. To be noted: chlorocebus sabaeus. (Formazan colour is commonly taken as a measure of viable cells.)
A further data set relates to bovine liver DHFR. Description: Selectivity index, ratio of IC50 for African green monkey Vero cells to IC50 for bovine liver DHFR. The format is toxicity. The note with it: read-out: Ratio IC50.

In brackets after ≈: the same amount, converted by molar mass.

The IC50 is the concentration that inhibits the measured activity by half.

In the data set on Plasmodium falciparum, `C=C[C@H]1CN2CC[C@H]1C[C@H]2[C@H](O)c1ccnc2ccc(OC)cc12` [QUININE] returned an IC50 of 0.268 µg/mL (≈ 0.826 µM). The molecule `CC(=O)Nc1ccc(S(=O)(=O)NC(C)c2nc3ccccc3c(=O)n2/N=C/c2ccccc2)cc1` (stereo not given) registered an IC50 with Plasmodium falciparum of 1.1 µg/mL (≈ 2.25 µM). Turning to `CC(=O)Nc1ccc(S(=O)(=O)NC(C)c2nc3ccccc3c(=O)n2/N=C/c2ccc([N+](=O)[O-])cc2)cc1` (stereo not given), the IC50 was 0.084 µg/mL (≈ 0.157 µM) in the data set on Plasmodium falciparum and 82.3 nM at Dihydrofolate reductase. Also, the Activity result with Vero is “Non-Toxic”. Besides, the selectivity ratio with bovine liver DHFR was determined as 341.

In turn, `CC(=O)Nc1ccc(S(=O)(=O)NC(C)c2nc3ccccc3c(=O)n2/N=C/c2ccccc2F)cc1` (stereo not given) gave an IC50 in the data set with Plasmodium falciparum of 0.7 µg/mL (≈ 1.38 µM). For the molecule `CC(=O)Nc1ccc(S(=O)(=O)NC(C)c2nc3ccccc3c(=O)n2/N=C/c2ccc(Cl)cc2)cc1` (stereo not given), the IC50 with Plasmodium falciparum came out at 0.72 µg/mL (≈ 1.37 µM). As for `CC(=O)Nc1ccc(S(=O)(=O)NC(C)c2nc3ccccc3c(=O)n2/N=C/c2cccc(O)c2)cc1` (stereo not given), in the data set with Plasmodium falciparum, inhibition was half-maximal at 1.01 µg/mL (≈ 2 µM) (IC50). Still for that read-out and setting: next, `CC(=O)Nc1ccc(S(=O)(=O)NC(C)c2nc3ccccc3c(=O)n2/N=C/c2ccccc2O)cc1` (stereo not given): 1.05 µg/mL (≈ 2.08 µM); `CC(=O)Nc1ccc(S(=O)(=O)NC(C)c2nc3ccccc3c(=O)n2/N=C/c2cccc(Br)c2)cc1` (stereo not given): 1.02 µg/mL (≈ 1.8 µM); `CC(=O)Nc1ccc(S(=O)(=O)NC(C)c2nc3ccccc3c(=O)n2/N=C/c2cccc(C)c2)cc1` (stereo not given): 0.72 µg/mL (≈ 1.43 µM).

As for `COc1cccc(/C=N/n2c(C(C)NS(=O)(=O)c3ccc(NC(C)=O)cc3)nc3ccccc3c2=O)c1` (stereo not given), 1.02 µg/mL (≈ 1.97 µM) corresponded to half-maximal inhibition with Plasmodium falciparum (IC50). `CC(=O)Nc1ccc(S(=O)(=O)NC(C)c2nc3ccccc3c(=O)n2/N=C/c2ccc(Br)cc2)cc1` (stereo not given) returned an IC50 in the data set on Plasmodium falciparum of 0.67 µg/mL (≈ 1.18 µM). The same measure, in the same setting: with `CC(=O)Nc1ccc(S(=O)(=O)NC(C)c2nc3ccccc3c(=O)n2/N=C/c2ccc(O)cc2)cc1` (stereo not given) the figure was 0.72 µg/mL (≈ 1.42 µM). Consider `COc1cc(Cc2cnc(N)nc2N)cc(OC)c1OC` [TRIMETHOPRIM], for which the IC50 in the data set with Plasmodium falciparum is 0.38 µg/mL (≈ 1.31 µM). Regarding `CC(=O)Nc1ccc(S(=O)(=O)NC(C)c2nc3ccccc3c(=O)n2/N=C/c2ccc(C)cc2)cc1` (stereo not given), the IC50 in the data set on Plasmodium falciparum was 0.068 µg/mL (≈ 0.135 µM); at Dihydrofolate reductase it was 165 nM. In the data set on Vero, the Activity entry is given as “Non-Toxic”. The selectivity ratio in the data set on bovine liver DHFR came out at 181. In the case of `CCc1nc(N)nc(N)c1-c1ccc(Cl)cc1` [PYRIMETHAMINE], the IC50 in the data set on Plasmodium falciparum was determined as 0.25 µg/mL (≈ 1.01 µM).

Consider `CC(=O)Nc1ccc(S(=O)(=O)NC(C)c2nc3ccccc3c(=O)n2/N=C/c2cccc(F)c2)cc1` (stereo not given), for which the IC50 was 0.092 µg/mL (≈ 0.181 µM) in the data set with Plasmodium falciparum and 53.2 nM against Dihydrofolate reductase. In the data set with Vero, the Activity entry is “Non-Toxic”. Moreover, the selectivity ratio in the data set on bovine liver DHFR came to 556.

In the case of `CC(=O)Nc1ccc(S(=O)(=O)NC(C)c2nc3ccccc3c(=O)n2/N=C/c2ccccc2Cl)cc1` (stereo not given), inhibition with Plasmodium falciparum was half-maximal at 1.05 µg/mL (≈ 2.01 µM) (IC50). On the same count and under the same terms, next, `CC(=O)Nc1ccc(S(=O)(=O)NC(C)c2nc3ccccc3c(=O)n2/N=C/c2ccccc2C)cc1` (stereo not given): 1.28 µg/mL (≈ 2.54 µM).

In the data set on Plasmodium falciparum, `COc1ccc(/C=N/n2c(C(C)NS(=O)(=O)c3ccc(NC(C)=O)cc3)nc3ccccc3c2=O)cc1` (stereo not given) yielded an IC50 of 0.67 µg/mL (≈ 1.29 µM). Consider `CC(=O)Nc1ccc(S(=O)(=O)NC(C)c2nc3ccccc3c(=O)n2/N=C/c2ccc(F)cc2)cc1` (stereo not given), for which the IC50 in the data set with Plasmodium falciparum is 0.084 µg/mL (≈ 0.166 µM); on Dihydrofolate reductase, 67 nM. Further, the Activity result in the data set on Vero is “Non-Toxic”. In addition, the selectivity ratio in the data set on bovine liver DHFR was 441. In the data set with Plasmodium falciparum, `CC(=O)Nc1ccc(S(=O)(=O)NC(C)c2nc3ccccc3c(=O)n2/N=C/c2cccc(Cl)c2)cc1` (stereo not given) displayed an IC50 of 1.01 µg/mL (≈ 1.93 µM). The same measure, in the same setting: with `CC(=O)Nc1ccc(S(=O)(=O)NC(C)c2nc3ccccc3c(=O)n2/N=C/c2ccccc2[N+](=O)[O-])cc1` (stereo not given) the figure was 0.7 µg/mL (≈ 1.31 µM). On the same count and under the same terms, with `CC(=O)Nc1ccc(S(=O)(=O)NC(C)c2nc3ccccc3c(=O)n2/N=C/c2ccccc2Br)cc1` (stereo not given) the figure was 0.78 µg/mL (≈ 1.37 µM). On to `CC(=O)Nc1ccc(S(=O)(=O)NC(C)c2nc3ccccc3c(=O)n2/N=C/c2cccc([N+](=O)[O-])c2)cc1` (stereo not given), for which the IC50 in the data set with Plasmodium falciparum is 0.092 µg/mL (≈ 0.172 µM); against Dihydrofolate reductase it was 99.1 nM. Further, the Activity result in the data set on Vero was “Non-Toxic”. The selectivity ratio in the data set on bovine liver DHFR stood at 283. `COc1ccccc1/C=N/n1c(C(C)NS(=O)(=O)c2ccc(NC(C)=O)cc2)nc2ccccc2c1=O` (stereo not given) registered an IC50 in the data set on Plasmodium falciparum of 0.78 µg/mL (≈ 1.5 µM).
